Read-outs that look alike come from different tables or passages of the source.
Legend:
PI3K-gamma = PI3K-gamma (Homo sapiens, UniProt P48736); experiment: PI3K-gamma fluorescence polarization assay; format: biochemical
Experimental: PI3K-Alpha, PI3K-Beta, PI3K-Gamma, and PI3K-delta Fluorescence Polarization Assay Protocols
PI3-Kinase reactions were performed in 5 mM HEPES, pH 7, 2.5 mM MgCl2, and 25 μM ATP, with diC8-PI(4,5)P2 (Echelon, Salt Lake City Utah) as substrate. Nunc 384-well black polypropylene fluorescent plates were used for PI3K assays. Reactions were quenched by the addition of EDTA to a final concentration of 10 mM. Final reaction volumes were 10 μl. For evaluation of PI3K inhibitors, 5 ng of enzyme (PI3K-alpha, beta, gamma, or delta) and 2.5 μM of substrate was used per […] reaction volume, and inhibitor concentrations ranged from 100 μM to 20 μM; the final level of DMSO in reactions never exceeded 2%. Reactions were allowed to proceed for one hour at 25° C. After 1 hour, GST-tagged GRP1 (general receptor for phosphoinositides) PH domain fusion protein was added to a final concentration of 100 nM, and BODIPY-TMRI(1,3,4,5)P4 (Echelon) was also added to a final concentration of 5 nM. Final sample volumes were 25 μl with a final DMSO concentration of 0.8%. Assay Plates were read on Perkin-Elmer Envision plate readers with appropriate filters for Tamra [BODIPY-TMRI(1,3,4,5)P4]. Data obtained were used to calculate enzymatic activity and enzyme inhibition by inhibitor compounds.

PI3K-alpha = PI3K-alpha (Homo sapiens, UniProt P42336); experiment: PI3K-alpha fluorescence polarization assay; format: biochemical; conditions: read-out: PI3Kα Avg. IC50
Sequence of PI3K-alpha (P42336 whole entry, species assumed): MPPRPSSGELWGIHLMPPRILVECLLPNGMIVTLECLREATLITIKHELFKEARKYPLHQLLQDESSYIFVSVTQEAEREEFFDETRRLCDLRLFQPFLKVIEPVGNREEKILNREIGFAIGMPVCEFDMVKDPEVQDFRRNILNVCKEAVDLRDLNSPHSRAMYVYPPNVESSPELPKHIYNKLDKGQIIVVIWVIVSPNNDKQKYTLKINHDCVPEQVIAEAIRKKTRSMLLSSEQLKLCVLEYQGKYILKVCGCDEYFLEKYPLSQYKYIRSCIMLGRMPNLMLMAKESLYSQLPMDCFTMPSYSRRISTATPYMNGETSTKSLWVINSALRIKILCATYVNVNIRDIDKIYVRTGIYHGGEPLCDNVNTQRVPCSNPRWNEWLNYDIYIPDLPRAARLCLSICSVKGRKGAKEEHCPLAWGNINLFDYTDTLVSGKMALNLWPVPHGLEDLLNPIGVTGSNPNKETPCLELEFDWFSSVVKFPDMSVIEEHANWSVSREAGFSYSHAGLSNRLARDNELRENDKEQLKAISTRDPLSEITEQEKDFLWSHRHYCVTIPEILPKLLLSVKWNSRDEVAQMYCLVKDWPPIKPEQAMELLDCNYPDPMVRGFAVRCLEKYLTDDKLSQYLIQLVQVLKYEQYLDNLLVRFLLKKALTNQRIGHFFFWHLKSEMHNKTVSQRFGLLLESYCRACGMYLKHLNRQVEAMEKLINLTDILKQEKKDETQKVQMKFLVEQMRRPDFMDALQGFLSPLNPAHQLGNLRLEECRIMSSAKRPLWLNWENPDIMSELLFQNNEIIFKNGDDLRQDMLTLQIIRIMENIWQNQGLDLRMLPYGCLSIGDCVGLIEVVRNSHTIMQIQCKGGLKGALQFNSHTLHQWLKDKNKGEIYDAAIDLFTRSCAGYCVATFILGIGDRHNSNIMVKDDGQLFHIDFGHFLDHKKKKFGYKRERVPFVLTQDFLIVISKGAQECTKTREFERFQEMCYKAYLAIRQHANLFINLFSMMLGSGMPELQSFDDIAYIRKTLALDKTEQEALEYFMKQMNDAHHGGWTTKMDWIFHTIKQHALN
Sequence of PI3K-alpha (P27986 whole entry partner, species assumed): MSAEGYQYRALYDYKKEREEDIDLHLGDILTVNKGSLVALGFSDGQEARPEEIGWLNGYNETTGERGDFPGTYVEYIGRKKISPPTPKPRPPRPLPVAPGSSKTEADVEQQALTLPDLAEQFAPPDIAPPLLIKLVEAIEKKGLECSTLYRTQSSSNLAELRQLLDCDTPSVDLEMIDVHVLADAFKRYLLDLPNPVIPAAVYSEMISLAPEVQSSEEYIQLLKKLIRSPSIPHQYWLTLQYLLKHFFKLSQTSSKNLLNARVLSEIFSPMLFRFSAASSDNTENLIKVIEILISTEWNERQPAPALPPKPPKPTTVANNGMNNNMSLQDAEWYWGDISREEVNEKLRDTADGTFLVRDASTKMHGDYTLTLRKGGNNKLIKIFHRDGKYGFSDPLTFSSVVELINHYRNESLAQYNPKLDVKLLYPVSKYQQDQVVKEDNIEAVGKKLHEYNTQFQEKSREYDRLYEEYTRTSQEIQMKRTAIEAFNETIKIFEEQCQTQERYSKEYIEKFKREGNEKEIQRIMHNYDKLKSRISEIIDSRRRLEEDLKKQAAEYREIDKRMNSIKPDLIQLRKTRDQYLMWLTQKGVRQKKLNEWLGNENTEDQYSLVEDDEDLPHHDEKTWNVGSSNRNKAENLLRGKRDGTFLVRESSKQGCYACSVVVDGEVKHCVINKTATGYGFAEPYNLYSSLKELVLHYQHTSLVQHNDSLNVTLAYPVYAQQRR

Sequence of PI3K-gamma (P48736 whole entry, species assumed): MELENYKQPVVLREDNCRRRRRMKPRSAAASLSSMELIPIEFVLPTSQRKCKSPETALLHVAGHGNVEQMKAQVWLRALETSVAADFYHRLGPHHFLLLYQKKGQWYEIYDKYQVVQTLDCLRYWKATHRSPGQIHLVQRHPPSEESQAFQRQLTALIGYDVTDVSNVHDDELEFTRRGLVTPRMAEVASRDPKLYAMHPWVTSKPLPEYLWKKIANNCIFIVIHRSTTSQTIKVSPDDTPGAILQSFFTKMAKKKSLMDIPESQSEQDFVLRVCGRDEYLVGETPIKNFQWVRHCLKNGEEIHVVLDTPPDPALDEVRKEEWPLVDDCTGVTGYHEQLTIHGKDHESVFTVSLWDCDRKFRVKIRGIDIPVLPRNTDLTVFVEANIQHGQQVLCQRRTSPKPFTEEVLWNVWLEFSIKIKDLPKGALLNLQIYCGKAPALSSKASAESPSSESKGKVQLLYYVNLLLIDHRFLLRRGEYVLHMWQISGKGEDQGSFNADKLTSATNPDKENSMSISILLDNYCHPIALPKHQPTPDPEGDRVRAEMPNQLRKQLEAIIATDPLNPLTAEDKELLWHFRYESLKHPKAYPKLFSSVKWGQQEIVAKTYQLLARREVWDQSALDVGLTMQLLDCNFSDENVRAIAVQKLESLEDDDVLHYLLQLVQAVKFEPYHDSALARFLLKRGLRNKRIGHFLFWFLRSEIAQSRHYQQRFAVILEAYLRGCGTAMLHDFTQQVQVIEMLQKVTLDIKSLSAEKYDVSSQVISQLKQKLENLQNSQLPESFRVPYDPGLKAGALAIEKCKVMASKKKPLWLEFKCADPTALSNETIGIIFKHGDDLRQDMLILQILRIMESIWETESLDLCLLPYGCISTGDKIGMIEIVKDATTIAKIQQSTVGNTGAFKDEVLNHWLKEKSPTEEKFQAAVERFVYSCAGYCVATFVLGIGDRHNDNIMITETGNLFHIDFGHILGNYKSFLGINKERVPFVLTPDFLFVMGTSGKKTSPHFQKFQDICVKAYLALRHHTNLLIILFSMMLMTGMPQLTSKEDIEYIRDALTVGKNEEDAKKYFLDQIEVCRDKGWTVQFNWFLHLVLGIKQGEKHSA

| Compound | IC50 (PI3K-gamma; read-out: PI3Kγ Avg. IC50) | IC50 (PI3K-alpha) | IC50 (PI3K-gamma; PI3Kγ Avg. IC50) |
| --- | --- | --- | --- |
| 4-hydroxy-2-({5-methoxy-2-methyl-1-[2-(4-methylpiperazin-1-yl)ethyl]-1H-indol-3-yl}methylene)-1-benzofuran-3(2H)-one [Example 129] | 4.5 µM | 0.488 µM | – |
| 4-hydroxy-2-[(1-{2-[4-(2-hydroxyethyl)piperazin-1-yl]ethyl}-5-methoxy-2-methyl-1H-indol-3-yl)methylene]-1-benzofuran-3(2H)-one [Example 131] | 3.97 µM | 0.478 µM | – |
| 4-hydroxy-2-{[5-methoxy-2-methyl-1-(2-morpholin-4-ylethyl)-1H-indol-3-yl]methylene}-1-benzofuran-3(2H)-one [Example 130] | 4.13 µM | 0.65 µM | – |
| 6,7-dihydroxy-2-({5-methoxy-2-methyl-1-[4-(4-methylpiperazin-1-yl)butyl]-1H-indol-3-yl}methylene)-1-benzofuran-3(2H)-one [Example 132] | 4.15 µM | 0.337 µM | – |
| 6,7-dihydroxy-2-[(1-{4-[4-(2-hydroxyethyl)piperazin-1-yl]butyl}-5-methoxy-2-methyl-1H-indol-3-yl)methylene]-1-benzofuran-3(2H)-one [Example 134] | 3.17 µM | 0.204 µM | – |
| 6,7-dihydroxy-2-{[5-methoxy-2-methyl-1-(4-morpholin-4-ylbutyl)-1H-indol-3-yl]methylene}-1-benzofuran-3(2H)-one [Example 133] | 0.954 µM | 0.231 µM | – |
| Cn1cc(C=C2Oc3cc(O)cc(O)c3C2=O)c2c(-c3ccccc3)cccc21 (single isomer, unassigned) [Compound 544, (2E)-4,6-dihydroxy-2-[(1-methyl-4-phenyl-1H-indol-3-yl)methylene]-1-benzofuran-3(2H)-one-(2Z)-4,6-dihydroxy-2-[(1-methyl-4-phenyl-1H-indol-3-yl)methylene]-1-benzofuran-3(2H)-one (1:1)] | – | 0.266 µM | 2.15 µM |
| CCc1cc(OC)cc2c(C=C3Oc4cc(O)cc(O)c4C3=O)cn(CCCC#N)c12 [Compound 471, 4-{3-[(4,6-dihydroxy-3-oxo-1-benzofuran-2(3H)-ylidene)methyl]-7-ethyl-5-methoxy-1H-indol-1-yl}butanenitrile] | – | 0.0625 µM | 0.139 µM |
| COc1ccc2[nH]cc(/C=C3\Oc4cc(O)cc(OC)c4C3=O)c2c1 [Compound 472, (2Z)-6-hydroxy-4-methoxy-2-[(5-methoxy-1H-indol-3-yl)methylene]-1-benzofuran-3(2H)-one] | – | 0.163 µM | 1.13 µM |
| CCc1cc(OC)cc2c(/C=C3\Oc4cc(O)ccc4C3=O)cn(CCN3CCN(C)CC3)c12 [Compound 473, (2Z)-2-({7-ethyl-5-methoxy-1-[2-(4-methylpiperazin-1-yl)ethyl]-1H-indol-3-yl}methylene)-6-hydroxy-1-benzofuran-3(2H)-one] | – | 0.162 µM | 2.61 µM |
| CCc1cc(OC)cc2c(/C=C3\Oc4cc(O)ccc4C3=O)cn(CCCC#N)c12 [Compound 474, 4-{7-ethyl-3-[(Z)-(6-hydroxy-3-oxo-1-benzofuran-2(3H)-ylidene)methyl]-5-methoxy-1H-indol-1-yl}butanenitrile] | – | 0.246 µM | 1.39 µM |
| CCc1cc(OC)cc2c(/C=C3\Oc4cccc(O)c4C3=O)cn(CCCC#N)c12 [Compound 475, 4-{7-ethyl-3-[(Z)-(4-hydroxy-3-oxo-1-benzofuran-2(3H)-ylidene)methyl]-5-methoxy-1H-indol-1-yl}butanenitrile] | – | > 10 µM | > 10 µM |
| Cc1cccc2c1c(/C=C1\Oc3cc(O)cc(O)c3C1=O)c(-c1ccccc1)n2C [Compound 476, (2Z)-2-[(1,4-dimethyl-2-phenyl-1H-indol-3-yl)methylene]-4,6-dihydroxy-1-benzofuran-3(2H)-one] | – | 0.412 µM | 1.64 µM |
| O=C1/C(=C/c2cn(CCO)c3cccc(-c4ccccc4)c23)Oc2cc(O)cc(O)c21 [Compound 478, (2Z)-4,6-dihydroxy-2-{[1-(2-hydroxyethyl)-4-phenyl-1H-indol-3-yl]methylene}-1-benzofuran-3(2H)-one] | – | 1.2 µM | 1.74 µM |
| COc1cc(-c2ccncc2)c2[nH]cc(/C=C3\Oc4cc(O)ccc4C3=O)c2c1 [Compound 479, (2Z)-6-hydroxy-2-[(5-methoxy-7-pyridin-4-yl-1H-indol-3-yl)methylene]-1-benzofuran-3(2H)-one] | – | 0.298 µM | > 10 µM |
| Cn1cc(/C=C2\Oc3cc(O)cc(O)c3C2=O)c2ccccc21 [Example 16, (2Z)-4,6-dihydroxy-2-[(1-methyl-1H-indol-3-yl)methylene]-1-benzofuran-3(2H)-one] | – | – | 6.95 µM |
| Cc1ccc2c(c1)C(=O)/C(=C/c1c[nH]c3ccccc13)S2 [Example 289, (2Z)-2-(1H-indol-3-ylmethylene)-5-methyl-1-benzothiophen-3(2H)-one] | – | 10.7 µM | – |
| Cc1ccc2c(c1)C(=O)/C(=C/c1c(-c3ccccc3)[nH]c3ccccc13)S2 [Example 290, (2Z)-5-methyl-2-[(2-phenyl-1H-indol-3-yl)methylene]-1-benzothiophen-3(2H)-one] | – | 9.17 µM | – |
| Cc1ccc2c(c1)C(=O)/C(=C/c1c(-c3ccc(Cl)cc3)[nH]c3ccccc13)S2 [Example 291, (2Z)-2-{[2-(4-chlorophenyl)-1H-indol-3-yl]methylene}-5-methyl-1-benzothiophen-3(2H)-one] | – | > 10 µM | – |
| Cc1ccc2c(c1)C(=O)/C(=C/c1c[nH]c3cc(C)ccc13)S2 [Example 292, (2Z)-5-methyl-2-[(6-methyl-1H-indol-3-yl)methylene]-1-benzothiophen-3(2H)-one] | – | > 10 µM | – |
| Cc1ccc2c(c1)C(=O)/C(=C/c1c[nH]c3c(C)cccc13)S2 [Example 293, (2Z)-5-methyl-2-[(7-methyl-1H-indol-3-yl)methylene]-1-benzothiophen-3(2H)-one] | – | > 10 µM | – |
| Cc1ccc2c(c1)C(=O)/C(=C/c1c[nH]c3ccc(Br)cc13)S2 [Example 294, (2Z)-2-[(5-bromo-1H-indol-3-yl)methylene]-5-methyl-1-benzothiophen-3(2H)-one] | – | > 10 µM | – |
| Cc1ccc2c(c1)C(=O)/C(=C/c1c[nH]c3ccc(OCc4ccccc4)cc13)S2 [Example 295, (2Z)-2-{[5-(benzyloxy)-1H-indol-3-yl]methylene}-5-methyl-1-benzothiophen-3(2H)-one] | – | > 10 µM | – |
| Cc1ccc2c(c1)C(=O)C(=Cc1c(-c3ccc4ccccc4c3)[nH]c3ccccc13)S2 [Example 296, 5-methyl-2-{[2-(2-naphthyl)-1H-indol-3-yl]methylene}-1-benzothiophen-3(2H)-one] | – | 12 µM | – |
| Cc1ccc2c(c1)C(=O)C(=Cc1c(-c3ccc(F)cc3)[nH]c3ccccc13)S2 [Example 297, 2-{[2-(4-fluorophenyl)-1H-indol-3-yl]methylene}-5-methyl-1-benzothiophen-3(2H)-one] | – | > 10 µM | – |
| Cc1ccc2c(c1)C(=O)C(=Cc1c(C)[nH]c3ccc([N+](=O)[O-])cc13)S2 [Example 298, 5-methyl-2-[(2-methyl-5-nitro-1H-indol-3-yl)methylene]-1-benzothiophen-3(2H)-one] | – | 9.19 µM | – |
| Cc1ccc2c(c1)C(=O)C(=Cc1cn(C)c3ccccc13)S2 [Example 299, 5-methyl-2-[(1-methyl-1H-indol-3-yl)methylene]-1-benzothiophen-3(2H)-one] | – | > 10 µM | – |

Reference: patent publication US20090311217A1, “3-SUBSTITUTED-1H-INDOLE COMPOUNDS, THEIR USE AS MTOR KINASE AND PI3 KINASE INHIBITORS, AND THEIR SYNTHESES” (priority 2008, published 2009)
